Measurements taken from patent US11608338B2, “Imidazolonylquinolines and the use thereof as ATM kinase inhibitors” (priority 2015, dated 2023).

How the values were obtained:
Type in all cases: biochemical
PI3K (p120γ) (human) = PI3K (p120γ) (human) (Homo sapiens (Human), UniProt P48736); assay: PI3K (p120γ) (human), non-radioactive assay (HTRF); conditions: ATM versus PI3Kgamma
Experimental: PI3K (p120γ) (Human), Non-Radioactive Assay
PI3K (p120γ) (human) was incubated in an assay buffer comprising 10 μM phosphatidylinositol 4,5-bisphosphate and MgATP (concentration as necessary). The reaction was initiated by addition of MgATP solution. After an incubation time of 30 min at room temperature, the reaction was stopped by addition of a solution consisting of EDTA and biotinylated phosphatidylinositol 3,4,5-trisphosphate. Finally, the detection buffer, consisting of a europium-labelled anti-GST monoclonal antibody, a GST-labelled GRP1 PH domain and streptavidin allophycocyanin, was added. The plate was read out via homogeneous time-resolved fluorescence (HTRF) and the corresponding signals were evaluated via the formula HTRF=10000×(Em665 nm/Em620 nm). • MgATP=magnesium 5′-O-[hydroxy({[(hydroxyphosphinato)oxy]phosphinato}oxy)phosphoryl]adenosine • MgCl2=magnesium dichloride • EGTA=ethylene glycol bis(aminoethyl ether) N,N,N′,N′-tetraacetic acid • Tween 20=polysorbate 20 Medicament/Pharmaceutical Composition

mTOR (human) = mTOR (human) (Homo sapiens (Human), UniProt P42345); assay: mTOR (human) radiometric kinase assay; conditions: ATM versus mTOR
Experimental: Furthermore, the effect, in particular inhibition, of other kinases and thus the selectivity of the compounds according to the invention can be determined with the aid of the following assay:
mTOR (human) was incubated with 50 mM HEPES pH 7.5, 1 mM EGTA, 0.01% Tween 20, 2 mg/ml of the substrate, 3 mM MnCl2 and [γ-^33P-ATP] (specific activity approximately 500 cpm/pmol, concentration as necessary). The reaction was initiated by addition of MgATP solution. After incubation at room temperature for 40 minutes, the reaction was stopped by addition of 3% phosphoric acid. 10 μl of the reaction solution were then transferred dropwise onto a P30 filtermat and washed three times for 5 min in 75 mM phosphoric acid and once in methanol, dried and evaluated by means of liquid scintillation counting.

PI3K p110α/p85α (human) = PI3K p110α/p85α (human) (Homo sapiens (Human), UniProt P42336); assay: PI3K p110α/p85α (human), non-radioactive assay (HTRF); conditions: ATM versus PI3Kalpha
Experimental: PI3K p110α/p85α (Human), Non-Radioactive Assay
(§1) PI3K p110α/p85α (human) was incubated in an assay buffer comprising 10 μM phosphatidylinositol 4,5-bisphosphate and MgATP (concentration as necessary). The reaction was initiated by addition of MgATP solution. After incubation at room temperature for 40 minutes, the reaction was stopped by addition of a solution consisting of EDTA and biotinylated phosphatidylinositol 3,4,5-trisphosphate. Finally, the detection buffer, consisting of a europium-labelled anti-GST monoclonal antibody, a GST-labelled GRP1 PH domain and streptavidin allophycocyanin, was added. The plate was read out via homogeneous time-resolved fluorescence (HTRF) and the corresponding signals were evaluated via the formula HTRF=10000×(Em665 nm/Em620 nm).

PI3K p110δ/p85α (human) = PI3K p110δ/p85α (human) (Homo sapiens (Human), UniProt O00329); assay: PI3K p110δ/p85α (human), non-radioactive assay (HTRF); conditions: ATM versus PI3Kdelta
Experimental: PI3K p110δ/p85α (Human), Non-Radioactive Assay
as §1, with “p110δ/p85α” for “p110α/p85α”, “After an” for “After”, “incubation time of 30 min” for “incubation”, “temperature,” for “temperature for 40 minutes,”

PI3K p110β/p85α (human) = PI3K p110β/p85α (human) (Homo sapiens (Human), UniProt P42338); assay: PI3K p110β/p85α (human), non-radioactive assay (HTRF); conditions: ATM versus PI3Kbeta
Experimental: PI3K p110β/p85α (Human), Non-Radioactive Assay
as §1, with “p110β/p85α” for “p110α/p85α”, “After an” for “After”, “incubation time of 30 min” for “incubation”, “temperature,” for “temperature for 40 minutes,”

PI3K p110α/p85α (human), sequence (P42336 whole entry): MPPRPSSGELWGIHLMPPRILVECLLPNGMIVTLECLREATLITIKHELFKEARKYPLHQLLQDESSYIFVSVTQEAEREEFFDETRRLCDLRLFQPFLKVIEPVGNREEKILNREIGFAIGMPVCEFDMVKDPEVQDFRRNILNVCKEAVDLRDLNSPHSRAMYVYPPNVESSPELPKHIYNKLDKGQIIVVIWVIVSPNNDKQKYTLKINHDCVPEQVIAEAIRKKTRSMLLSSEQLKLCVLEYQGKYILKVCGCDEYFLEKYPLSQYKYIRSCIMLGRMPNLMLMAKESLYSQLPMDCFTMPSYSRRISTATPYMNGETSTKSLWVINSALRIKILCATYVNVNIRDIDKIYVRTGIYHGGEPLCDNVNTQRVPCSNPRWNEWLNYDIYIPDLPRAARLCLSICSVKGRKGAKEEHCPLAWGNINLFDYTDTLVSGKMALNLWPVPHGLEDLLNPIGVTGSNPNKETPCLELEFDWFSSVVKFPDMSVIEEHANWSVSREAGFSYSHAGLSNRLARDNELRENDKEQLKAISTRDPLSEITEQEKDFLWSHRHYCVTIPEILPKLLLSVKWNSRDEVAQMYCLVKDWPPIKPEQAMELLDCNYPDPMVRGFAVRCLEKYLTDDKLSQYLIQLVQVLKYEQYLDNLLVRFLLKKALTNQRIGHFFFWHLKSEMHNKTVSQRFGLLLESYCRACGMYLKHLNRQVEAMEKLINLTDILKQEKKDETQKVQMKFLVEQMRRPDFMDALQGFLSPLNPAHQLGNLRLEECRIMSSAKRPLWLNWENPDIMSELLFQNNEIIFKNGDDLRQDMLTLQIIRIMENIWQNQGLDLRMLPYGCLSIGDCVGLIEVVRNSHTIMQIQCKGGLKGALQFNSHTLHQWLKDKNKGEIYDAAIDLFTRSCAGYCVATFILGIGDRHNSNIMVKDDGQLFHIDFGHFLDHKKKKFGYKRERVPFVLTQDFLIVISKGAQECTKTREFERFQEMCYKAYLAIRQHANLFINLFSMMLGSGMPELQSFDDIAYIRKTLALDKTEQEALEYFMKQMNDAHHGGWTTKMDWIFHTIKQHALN
PI3K p110α/p85α (human), sequence (P27986 whole entry partner): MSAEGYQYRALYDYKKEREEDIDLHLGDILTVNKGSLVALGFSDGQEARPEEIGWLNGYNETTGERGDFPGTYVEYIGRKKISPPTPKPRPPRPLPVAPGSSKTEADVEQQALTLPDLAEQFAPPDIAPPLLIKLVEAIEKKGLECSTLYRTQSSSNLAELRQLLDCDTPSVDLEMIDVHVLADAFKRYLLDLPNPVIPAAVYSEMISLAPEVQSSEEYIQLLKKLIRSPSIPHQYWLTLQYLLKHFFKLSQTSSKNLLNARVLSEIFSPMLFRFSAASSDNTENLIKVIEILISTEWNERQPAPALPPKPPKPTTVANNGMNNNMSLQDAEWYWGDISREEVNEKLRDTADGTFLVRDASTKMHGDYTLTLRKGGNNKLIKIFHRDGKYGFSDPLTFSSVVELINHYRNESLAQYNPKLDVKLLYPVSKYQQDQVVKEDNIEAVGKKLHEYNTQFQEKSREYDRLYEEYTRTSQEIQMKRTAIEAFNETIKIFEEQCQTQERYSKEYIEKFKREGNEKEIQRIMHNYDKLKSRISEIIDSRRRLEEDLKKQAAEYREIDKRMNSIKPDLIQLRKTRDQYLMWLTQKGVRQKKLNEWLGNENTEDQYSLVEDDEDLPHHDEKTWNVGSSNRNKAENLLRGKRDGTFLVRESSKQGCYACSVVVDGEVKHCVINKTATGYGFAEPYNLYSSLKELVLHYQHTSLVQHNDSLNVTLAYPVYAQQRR
PI3K (p120γ) (human), sequence (P48736 whole entry): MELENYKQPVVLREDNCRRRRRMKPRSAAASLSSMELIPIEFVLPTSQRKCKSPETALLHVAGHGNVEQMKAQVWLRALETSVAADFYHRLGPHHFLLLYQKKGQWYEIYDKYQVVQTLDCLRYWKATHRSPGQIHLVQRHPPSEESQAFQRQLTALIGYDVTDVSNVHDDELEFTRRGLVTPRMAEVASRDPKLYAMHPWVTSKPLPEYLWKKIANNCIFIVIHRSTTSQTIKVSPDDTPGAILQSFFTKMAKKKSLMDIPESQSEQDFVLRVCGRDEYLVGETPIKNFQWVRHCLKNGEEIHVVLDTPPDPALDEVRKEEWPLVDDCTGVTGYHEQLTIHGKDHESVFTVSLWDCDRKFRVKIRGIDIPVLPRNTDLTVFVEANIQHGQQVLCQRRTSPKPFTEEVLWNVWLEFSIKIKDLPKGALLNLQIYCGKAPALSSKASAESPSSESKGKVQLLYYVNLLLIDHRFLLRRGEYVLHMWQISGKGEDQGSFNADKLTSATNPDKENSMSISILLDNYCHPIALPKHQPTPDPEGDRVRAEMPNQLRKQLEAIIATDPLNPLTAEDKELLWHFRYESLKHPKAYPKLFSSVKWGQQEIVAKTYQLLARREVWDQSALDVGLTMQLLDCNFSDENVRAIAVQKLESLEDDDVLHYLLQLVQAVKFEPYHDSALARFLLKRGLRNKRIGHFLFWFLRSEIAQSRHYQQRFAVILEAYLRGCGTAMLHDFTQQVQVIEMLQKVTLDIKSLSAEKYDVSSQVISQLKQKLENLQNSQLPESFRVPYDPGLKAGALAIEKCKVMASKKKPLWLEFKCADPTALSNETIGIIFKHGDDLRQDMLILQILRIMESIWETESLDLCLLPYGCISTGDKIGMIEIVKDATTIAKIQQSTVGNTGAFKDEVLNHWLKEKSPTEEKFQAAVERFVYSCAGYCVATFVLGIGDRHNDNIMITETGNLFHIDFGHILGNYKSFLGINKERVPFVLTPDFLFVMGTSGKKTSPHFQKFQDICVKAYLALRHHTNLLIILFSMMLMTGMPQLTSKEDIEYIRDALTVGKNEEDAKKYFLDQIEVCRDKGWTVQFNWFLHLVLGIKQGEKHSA
PI3K p110δ/p85α (human), sequence (O00329 whole entry): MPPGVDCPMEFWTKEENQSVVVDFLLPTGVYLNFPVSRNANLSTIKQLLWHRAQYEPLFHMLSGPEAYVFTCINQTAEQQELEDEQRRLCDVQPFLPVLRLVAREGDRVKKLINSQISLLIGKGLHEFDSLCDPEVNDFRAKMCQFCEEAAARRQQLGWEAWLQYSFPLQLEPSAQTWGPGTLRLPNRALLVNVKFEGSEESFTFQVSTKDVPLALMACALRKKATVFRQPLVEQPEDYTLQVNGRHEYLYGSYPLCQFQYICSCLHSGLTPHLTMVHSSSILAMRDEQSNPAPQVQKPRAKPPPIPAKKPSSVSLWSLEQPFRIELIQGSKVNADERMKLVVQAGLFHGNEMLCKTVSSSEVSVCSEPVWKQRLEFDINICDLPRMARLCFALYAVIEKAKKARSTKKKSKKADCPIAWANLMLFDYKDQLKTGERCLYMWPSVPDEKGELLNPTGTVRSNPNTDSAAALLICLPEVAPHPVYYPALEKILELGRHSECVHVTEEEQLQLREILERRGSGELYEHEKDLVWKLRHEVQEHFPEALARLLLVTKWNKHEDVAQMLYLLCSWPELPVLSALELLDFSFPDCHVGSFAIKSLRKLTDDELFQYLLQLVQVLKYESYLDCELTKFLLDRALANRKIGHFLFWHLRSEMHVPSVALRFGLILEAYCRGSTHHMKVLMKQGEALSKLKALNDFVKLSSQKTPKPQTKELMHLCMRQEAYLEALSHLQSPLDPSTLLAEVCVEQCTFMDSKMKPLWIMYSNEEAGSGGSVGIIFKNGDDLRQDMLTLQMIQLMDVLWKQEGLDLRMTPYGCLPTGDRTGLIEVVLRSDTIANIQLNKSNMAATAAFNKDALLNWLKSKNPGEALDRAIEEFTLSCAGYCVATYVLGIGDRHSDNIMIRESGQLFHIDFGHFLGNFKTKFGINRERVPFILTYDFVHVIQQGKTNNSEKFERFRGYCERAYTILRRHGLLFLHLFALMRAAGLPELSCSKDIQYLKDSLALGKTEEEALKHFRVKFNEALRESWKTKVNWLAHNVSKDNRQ
PI3K p110δ/p85α (human), sequence (P27986 whole entry partner): as the sequence (P27986 whole entry partner) above
PI3K p110β/p85α (human), sequence (P42338 whole entry): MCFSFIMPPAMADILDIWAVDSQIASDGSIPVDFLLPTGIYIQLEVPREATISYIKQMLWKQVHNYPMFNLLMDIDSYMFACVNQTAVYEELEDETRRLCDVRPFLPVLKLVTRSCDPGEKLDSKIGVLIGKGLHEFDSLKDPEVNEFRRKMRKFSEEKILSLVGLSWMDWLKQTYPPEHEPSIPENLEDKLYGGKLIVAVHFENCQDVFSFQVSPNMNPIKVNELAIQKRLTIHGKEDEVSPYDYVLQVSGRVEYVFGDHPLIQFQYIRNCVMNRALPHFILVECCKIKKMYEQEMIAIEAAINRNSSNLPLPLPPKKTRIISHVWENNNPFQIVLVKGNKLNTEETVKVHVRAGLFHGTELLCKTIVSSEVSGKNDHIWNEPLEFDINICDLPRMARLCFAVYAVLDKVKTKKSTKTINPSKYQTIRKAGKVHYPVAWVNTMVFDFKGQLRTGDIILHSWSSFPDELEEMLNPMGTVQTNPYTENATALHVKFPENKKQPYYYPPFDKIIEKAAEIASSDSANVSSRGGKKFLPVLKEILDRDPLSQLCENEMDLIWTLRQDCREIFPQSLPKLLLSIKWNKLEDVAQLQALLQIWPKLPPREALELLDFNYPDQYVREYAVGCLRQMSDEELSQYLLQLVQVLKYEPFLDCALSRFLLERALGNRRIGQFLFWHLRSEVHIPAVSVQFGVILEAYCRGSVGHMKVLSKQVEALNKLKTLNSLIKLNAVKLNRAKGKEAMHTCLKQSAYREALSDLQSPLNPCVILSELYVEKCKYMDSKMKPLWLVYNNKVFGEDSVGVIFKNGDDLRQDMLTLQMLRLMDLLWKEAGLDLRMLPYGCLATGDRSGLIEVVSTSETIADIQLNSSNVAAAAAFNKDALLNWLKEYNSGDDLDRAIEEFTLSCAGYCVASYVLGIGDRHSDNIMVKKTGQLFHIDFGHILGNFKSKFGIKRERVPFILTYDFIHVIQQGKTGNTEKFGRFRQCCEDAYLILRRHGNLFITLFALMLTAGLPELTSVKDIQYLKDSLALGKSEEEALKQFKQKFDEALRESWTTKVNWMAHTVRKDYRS
PI3K p110β/p85α (human), sequence (P27986 whole entry partner): as the sequence (P27986 whole entry partner) above

Row | ratio of IC50 (ATM) and IC50 (PI3Kgamma), selectivity with respect to PI3Kgamma (PI3K (p120γ) (human)) | ratio of IC50 (ATM) and IC50 (PI3Kalpha), selectivity with respect to PI3Kalpha (PI3K p110α/p85α (human)) | ratio of IC50 (ATM) and IC50 (PI3Kdelta), selectivity with respect to PI3Kdelta (PI3K p110δ/p85α (human)) | ratio IC50 (ATM):IC50 (PI3Kbeta), selectivity with respect to PI3Kbeta (PI3K p110β/p85α (human)) | Compound | ratio IC50 (ATM):IC50 (mTOR), selectivity with respect to mTOR (mTOR (human))
1 | at least 2000 times | at least 2000 times | at least 2000 times |  | COc1cc2ncc3c(c2cc1-c1cnn(C)c1)n(-c1ncc(N2CCNCC2)cc1F)c(=O)n3C [Example 123, 1-(3-Fluoro-5-piperazin-1-yl-pyridin-2-yl)-7-methoxy-3-methyl-8-(1-methyl-1H-pyrazol-4-yl)-1,3-dihydro-imidazo[4,5-c]quinolin-2-one] | 
2 |  |  |  |  | CCc1cnccc1-n1c(=O)n(C)c2cnc3cc(OC)c(-c4cnn(CC)c4)cc3c21 [Example 157, 8-(1-Ethyl-1H-pyrazol-4-yl)-1-(3-ethylpyridin-4-yl)-7-methoxy-3-methyl-1,3-dihydroimidazo[4,5-c] quinolin-2-one] | at least 2000 times
3 |  |  |  |  | COc1cc2ncc3c(c2cc1-c1cn(C)nc1C)n(-c1c(F)cncc1OC(F)F)c(=O)n3C [Example 147, 1-(3-Difluoromethoxy-5-fluoropyridin-4-yl)-8-(1,3-dimethyl-1H-pyrazol-4-yl)-7-methoxy-3-methyl-1,3-dihydroimidazo[4,5-c]-quinolin-2-one] | at least 2000 times
4 | at least 2000 times | at least 2000 times | at least 2000 times |  | COc1cc2ncc3c(c2cc1-c1cnn(C)c1)n(-c1cc2[nH]ccc2cn1)c(=O)n3C [Example 120, 7-Methoxy-3-methyl-8-(1-methyl-1H-pyrazol-4-yl)-1-(1H-pyrrolo[3,2-c]pyridin-6-yl)-1,3-dihydroimidazo-[4,5-c]quinolin-2-one] | at least 2000 times
5 | at least 2000 times | at least 2000 times | at least 2000 times |  | COc1cc2ncc3c(c2cc1-c1cnn(C)c1)n(-c1ncc(OC2CNC2)cc1F)c(=O)n3C [Example 205, 1-[5-(Azetidin-3-yloxy)-3-fluoropyridin-2-yl]-7-methoxy-3-methyl-8-(1-methyl-1H-pyrazol-4-yl)-1,3-dihydroimidazo[4,5-c]-quinolin-2-one] | 
6 | at least 2000 times | at least 2000 times | at least 2000 times |  | COCCOc1cnc(-n2c(=O)n(C)c3cnc4cc(OC)c(-c5cnn(C)c5)cc4c32)c(F)c1 [Example 66, 1-[3-Fluoro-5-(2-methoxy-ethoxy)-2-pyridyl]-7-methoxy-3-methyl-8-(1-methylpyrazol-4-yl)imidazo-[4,5-c]quinolin-2-one] | 
7 |  |  |  | at least 2000 times | COc1ccc(-c2cc3c(cc2OC)ncc2c3n(-c3c(F)cncc3OC)c(=O)n2C)cn1 [Example 137, 1-(3-Fluoro-5-methoxy-pyridin-4-yl)-7-methoxy-8-(6-methoxypyridin-3-yl)-3-methyl-1,3-dihydroimidazo-[4,5-c]quinolin-2-one] | 
8 | at least 2000 times | at least 2000 times | at least 2000 times |  | COc1cc2ncc3c(c2cc1-c1cnn(C)c1)n(-c1ncc(OCCO)cc1F)c(=O)n3C [Example 67, 1-[3-Fluoro-5-(2-hydroxy-ethoxy)-2-pyridyl]-7-methoxy-3-methyl-8-(1-methylpyrazol-4-yl)imidazo-[4,5-c]quinolin-2-one] | 
9 |  |  |  |  | CNC(=O)c1cnc(-n2c(=O)n(C)c3cnc4cc(OC)c(-c5cnn(C)c5)cc4c32)c(F)c1 [Example 138, 5-Fluoro-6-[7-methoxy-3-methyl-8-(1-methyl-1H-pyrazol-4-yl)-2-oxo-2,3-dihydroimidazo[4,5-c]-quinolin-1-yl]-N-methyl-nicotinamid] | at least 2000 times
10 |  |  |  |  | COc1cc2ncc3c(c2cc1-c1cc[nH]n1)n(-c1cn(C)nc1C)c(=O)n3C [Example 121, 1-(1,3-Dimethyl-1H-pyrazol-4-yl)-7-methoxy-3-methyl-8-(1H-pyrazol-3-yl)-1,3-dihydroimidazo[4,5-c]-quinolin-2-one] | at least 2000 times
11 |  |  |  |  | COc1cc2ncc3c(c2cc1-c1cnn(C)c1)n(-c1cn(C)nc1F)c(=O)n3C [Example 141, 1-(3-Fluoro-1-methyl-1H-pyrazo1-4-yl)-7-methoxy-3-methyl-8-(1-methyl-1H-pyrazol-4-yl)-1,3-dihydro-imidazo[4,5-c]quinolin-2-one] | at least 2000 times
12 | at least 2000 times | at least 2000 times | at least 2000 times |  | COc1cc2ncc3c(c2cc1-c1c[nH]nc1C)n(-c1ncc(F)cc1F)c(=O)n3C [Example 117, 1-(3,5-Difluoropyridin-2-yl)-7-methoxy-3-methyl-8-(3-methyl-1H-pyrazol-4-yl)-1,3-dihydroimidazo[4,5-c]-quinolin-2-one] | 

Row | Compound | ratio of IC50 (ATM) and IC50 (PI3Kgamma), selectivity with respect to PI3Kgamma (PI3K (p120γ) (human)) | ratio of IC50 (ATM) and IC50 (PI3Kalpha), selectivity with respect to PI3Kalpha (PI3K p110α/p85α (human)) | ratio of IC50 (ATM) and IC50 (PI3Kdelta), selectivity with respect to PI3Kdelta (PI3K p110δ/p85α (human)) | ratio IC50 (ATM):IC50 (PI3Kbeta), selectivity with respect to PI3Kbeta (PI3K p110β/p85α (human)) | ratio IC50 (ATM):IC50 (mTOR), selectivity with respect to mTOR (mTOR (human))
13 | CCc1cncc(F)c1-n1c(=O)n(C)c2cnc3cc(OC)c(-c4cn(C)nn4)cc3c21 [Example 126, 1-(3-Ethyl-5-fluoropyridin-4-yl)-7-methoxy-3-methyl-8-(1-methyl-1H-1,2,3-triazol-4-yl)-1,3-dihydroimidazo-[4,5-c] quinolin-2-one] | at least 2000 times | at least 2000 times | at least 2000 times |  | at least 2000 times
14 | COc1cc2ncc3c(c2cc1-c1cnn(C)c1)n(-c1ncc(OC(F)F)cc1F)c(=O)n3C [Example 114, 1-(5-Difluoromethoxy-3-fluoropyridin-2-yl)-7-methoxy-3-methyl-8-(1-methyl-1H-pyrazol-4-yl)-1,3-dihydroimidazo[4,5-c]-quinolin-2-one] | at least 2000 times | at least 2000 times | at least 2000 times |  | at least 2000 times
15 | COc1cnc(-n2c(=O)n(C)c3cnc4cc(OC)c(-c5c[nH]nc5C)cc4c32)c(F)c1 [Example 122, 1-(3-Fluoro-5-methoxy-pyridin-2-yl)-7-methoxy-3-methyl-8-(3-methyl-1H-pyrazol-4-yl)-1,3-dihydro-imidazo[4,5-c]quinolin-2-one] | at least 2000 times | at least 2000 times | at least 2000 times |  | at least 2000 times
